US20170198318A1, “METHOD OF MANUFACTURING METHOXY-ISOFLAVONES BY BIOTRANSFORMATION AND USE THEREOF” (NATIONAL UNIVERSITY OF TAINAN, priority 2016, published 2017)

Legend:
[1] = tested on: Mouse B16 melanoma cells (4A5); experiment: Melanin content / inhibition of melanogenesis in IBMX-stimulated B16 cells; format: cell-based
Protocol: (§1) The ranges of non-toxic concentrations of the compounds toward the B16 cells was first determined with the 3-(4,5-dimethylthiazol-2-yl)-2,5-diphenyltetrazolium bromide (MTT) method. Mouse B16 melanoma cells (4A5) was purchased from the Bioresources Collection and Research Center (BCRC, Food Industry Research and Development Institute, Hsinchu, Taiwan). Determinations of cell viability and melanin content were performed as previously reported [Appl. Microbiol. Biotechnol. 2007; 73:1169-1172] and described briefly below. Dulbecco's modified Eagle's medium (DMEM) containing 10% (v/v) fetal bovine serum was used to cultivate mouse B16 cells, which were incubated at 37° C. in a humidified, CO2-controlled (5%) incubator. After 1 day of incubation, the cells were treated with tested drugs in the presence of a melanogenesis stimulation agent (400 μM of 3-isobutyl-1-methylxanthine (IBMX)) for another 2 days. Then, the drug-treated cells were harvested and the cell viability and melanin content were measured according to the previous study [Curr. Pharma. Biotechnol. 2015; 16:1085-1093]. In this experiment, cells only treated with IBXM is used as a negative control and cells treated with 20 μM danazol is used as a positive control.
The X axis includes different treatment conditions, and the Y axis of the results represents cell survival rate or relative melanin content. Both of the cell survival rate and the relative melanin content are expressed as percentage of control (% of control). […] Accordingly, the 25 μM was used as the maximum concentration in the determination of the inhibition of melanogenesis.
Pharm. Res. 2010; 33:1959-19].

[2] = tested on: Mouse B16 melanoma cells (4A5); experiment: Cell viability (MTT method) in B16 cells; format: cell-based; settings: under a concentration of 25 μM, with 400 μM IBMX, 2 days
Protocol: as §1, with “In this experiment, cells only treated with IBXM is used as a negative control and cells treated with 20 μM danazol is used as a positive control.” left out
The X axis includes different treatment conditions, and the Y axis of the results represents cell survival rate or relative melanin content. Both of the cell survival rate and the relative melanin content are expressed as percentage of control (% of control). […]

[3] = tested on: melanogenesis; settings: Arch. Pharm. Res. 2010; cited from earlier work
[4] = non-toxic concentrations, 400 μM IBMX, 2 days

SMILES	inhibition of melanogenesis ([1]; 6.25 μM and 25 μM, compared with the control group)	activity at 25 µM ([1]; Mus musculus, 48 h, 25 μM, 400 μM IBMX, 2 days, read-out: melanin content (% of control))	inhibition of melanogenesis compared with positive control danazol ([1]; danazol 20 μM)	inhibition of melanogenesis [1, 4]	inhibition of melanogenesis ([1]; non-toxic concentrations, 400 μM IBMX, 2 days, listed as 7,4′-dihydroxy-8-methoxy-isoflavone)	cytotoxicity (cell survival rate) [2]	melanogenesis inhibition (previously identified) [3]
COc1c(O)ccc2c(=O)c(-c3ccc(O)cc3)coc12 [compound (1), 7,4′-dihydroxy-8-methoxy-isoflavone]	show inhibition of melanogenesis	63.5%	greater than that produced by danazol	dose-dependently inhibited melanogenesis	inhibitory effect on melanogenesis	did not exhibit cytotoxicity	–
COc1ccc2c(=O)c(-c3ccc(O)cc3)coc2c1O [compound (2), 8,4′-dihydroxy-7-methoxy-isoflavone]	–	–	–	dose-dependently inhibited melanogenesis	–	did not exhibit cytotoxicity	–
C#C[C@]1(O)CC[C@H]2[C@@H]3CCC4=Cc5oncc5C[C@]4(C)[C@H]3CC[C@@]21C [danazol]	–	–	–	–	–	–	potent melanogenesis inhibitor
